Results: patent US12600988B2, “Coronavirus pseudovirus packaging system, packaging method therefor, and application of coronavirus pseudovirus in evaluating disinfection efficacy” (priority 2020, dated 2026)
“Also recorded” adds a separate entry of the source.

System: COVID-19 pseudovirus
Set-up: species or system COVID-19 (SARS-CoV-2)

O=[O+][O-] [ozone]
inactivation of COVID-19 pseudovirus: almost completely inactivated; also recorded: complete inactivation
